The text on data set [1]: Oily vehicles such as castor oil solubilize, but these have poor compliance.
For data set [2] the following is noted: for max soluble concentration: in water. The source says:
The solubility of α-2 agonists, in particular, decreases exponentially at an increased pH.

These results are taken from patent publication US8999938B2, “Ophthalmic lipophilic drug delivery vehicle formulations” (GNT, LLC, priority 2013, dated 2015).

Read-outs that look alike come from different tables or passages of the source. Where only a bound is given, the exact number is not on record here.

For `Cc1cccc([C@H](C)c2cnc[nH]2)c1C` [dexmedetomidine], the “concentration solubilized in the provided compositions” value in data set [1] is not below 0.15%. For the same compound, the max soluble concentration in data set [2] (pH solution 6.0) is reported as 0.195%; in data set [2] (pH solution 6.4), 0.060%; in data set [2] (pH solution 7.0), 0.023%; in data set [2] (pH solution 7.4), 0.015%; in data set [2] (pH solution 8.0), 0.013%. Besides, the degree of solubility entry in data set [2] (pH of 4.0 to 6.0) is “very high degree of solubility”.
